The values below come from patent publication US20240158418A1 (C4 Therapeutics, Inc., priority 2021, published 2024).

Where only a bound is given, the exact number is not on record here.

One assay concerns NCI-H1975 cells. Put plainly: Global proteomics (TMT), NCI-H1975. The assay is classed as cell-based, human. The procedure: Each cell line was treated in duplicate with either DMSO or Compound 1 (final concentration 300 nM) for 6 hours in an incubator at 37° C. with 5% CO2. After 6 hour incubation, cells were harvested, washed twice with PBS, and snap frozen in liquid nitrogen. Samples were re-suspended in lysis buffer [8 M urea, 50 mM HEPS (pH 8.5), 50 mM NaCl, 1× protease inhibitor cocktail] and lysed by sonication at 4° C. with 85% amplitude in a pulse setting with 30 seconds on and 30 seconds off for a total sonication time of 5 minutes. Lysates were centrifuged at maximum speed for 10 minutes at 4° C. and the supernatant collected, reduced for 1 hour at room temperature with 5 mM TCEP, and the cysteine residues were then alkylated with 15 mM iodoacetamide (room temperature, in dark, 30 minutes). Protein content was extracted by methanol-chloroform precipitation and subsequent ice-cold acetone washes. Protein pellets were resuspended in 8 M urea, 50 mM HEPES (pH 8.5) buffer and protein concentrations were measured by BCA assay. […]
6 μL of each sample was separated by reversed phase chromatography using an EASY-Spray C18 column (2 μm particle size, 500 mm length×75 μm ID) mounted in an EASY-nLC 1200 LC pump coupled to an Orbitrap Fusion Lumos Tribid mass spectrometer. […] TMT reporter ion intensities were quantified by extracting the signal-to-noise ratio for each. […]

Another assay deals with EGFR L858R (Homo sapiens, UniProt P00533, L858R). The assay is described as follows: KINOMEscan scanMAX, EGFR-L858R. More on the design: purchased Eurofins DiscoverX KINOMEscan scanMAX; host or cells: E. coli BL21-derived (T7 phage) or HEK-293. Conditions: 100 nM. The assay is classed as binding. The procedure: Kinome-wide binding selectivity of CFT8919 was assessed via the KINOMEscan scanMAX assay at Eurofins DiscoverX (Freemont, CA, USA). Compound was tested at 100 nM against a diverse panel of 468 kinases. The size of circles was mapped onto the kinase phylogenetic tree utilizing DiscoverX TREEspot using <50% of % control as a cutoff.
EGFR L858R, sequence (P00533 25-1210 L858R): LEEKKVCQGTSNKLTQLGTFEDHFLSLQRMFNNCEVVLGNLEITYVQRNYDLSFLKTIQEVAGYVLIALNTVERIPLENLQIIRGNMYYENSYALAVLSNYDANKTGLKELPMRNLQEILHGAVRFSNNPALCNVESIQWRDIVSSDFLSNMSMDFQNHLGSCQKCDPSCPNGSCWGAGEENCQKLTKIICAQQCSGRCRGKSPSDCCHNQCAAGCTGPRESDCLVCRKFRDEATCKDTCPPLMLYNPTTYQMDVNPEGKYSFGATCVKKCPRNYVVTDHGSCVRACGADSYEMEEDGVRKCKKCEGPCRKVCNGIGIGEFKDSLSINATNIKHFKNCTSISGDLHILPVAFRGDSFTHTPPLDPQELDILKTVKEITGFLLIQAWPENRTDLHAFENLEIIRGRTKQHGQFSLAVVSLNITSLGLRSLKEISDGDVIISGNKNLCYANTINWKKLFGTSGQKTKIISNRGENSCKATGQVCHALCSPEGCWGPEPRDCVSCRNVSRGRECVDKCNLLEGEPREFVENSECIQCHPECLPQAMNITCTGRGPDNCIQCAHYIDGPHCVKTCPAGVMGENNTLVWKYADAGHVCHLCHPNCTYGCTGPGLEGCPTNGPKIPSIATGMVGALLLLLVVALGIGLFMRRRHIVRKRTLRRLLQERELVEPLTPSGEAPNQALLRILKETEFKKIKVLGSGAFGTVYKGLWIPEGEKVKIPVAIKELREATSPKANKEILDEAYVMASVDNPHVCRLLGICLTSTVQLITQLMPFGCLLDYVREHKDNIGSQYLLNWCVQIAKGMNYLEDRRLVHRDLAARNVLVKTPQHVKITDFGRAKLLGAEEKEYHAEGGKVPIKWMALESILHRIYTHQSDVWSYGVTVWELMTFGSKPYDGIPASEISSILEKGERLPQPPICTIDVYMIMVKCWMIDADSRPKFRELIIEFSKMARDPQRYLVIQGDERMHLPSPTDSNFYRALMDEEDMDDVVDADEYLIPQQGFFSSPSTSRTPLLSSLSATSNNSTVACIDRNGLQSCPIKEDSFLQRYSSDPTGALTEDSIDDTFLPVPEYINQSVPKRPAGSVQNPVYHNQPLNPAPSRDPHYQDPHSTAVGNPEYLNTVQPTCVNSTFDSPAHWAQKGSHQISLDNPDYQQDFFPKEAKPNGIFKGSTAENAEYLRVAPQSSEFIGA
For most assays, kinase-tagged T7 phage strains were grown in parallel in 24-well blocks in an E. coli host derived from the BL21 strain. E. coli were grown to log-phase and infected with T7 phage from a frozen stock (multiplicity of infection=0.4) and incubated with shaking at 32° C. until lysis (90-150 minutes). The lysates were centrifuged (6,000×g) and filtered (0.2 μm) to remove cell debris. The remaining kinases were produced in HEK-293 cells and subsequently tagged with DNA for qPCR detection. Streptavidin-coated magnetic beads were treated with biotinylated small molecule ligands for 30 minutes at room temperature to generate affinity resins for kinase assays. The liganded beads were blocked with excess biotin and washed with blocking buffer (SeaBlock (Pierce), 1% BSA, 0.05% Tween 20, 1 mM DTT) to remove unbound ligand and to reduce non-specific phage binding. […] Test compounds were prepared as 40× stocks in 100% DMSO and directly diluted into the assay. […] The kinase concentration in the eluates was measured by qPCR.

On to `O=C1CC[C@H](Nc2ccc(N3CCC(O)(CC(=O)N4CC5(C4)CN(c4ccc(-c6cc(F)c7c(c6)C(=O)N(C(C(=O)Nc6nccs6)c6ncn8c6CCC8)C7)cc4)C5)CC3)c(F)c2)C(=O)N1` (stereo partly drawn) [Compound 1, 2-(6,7-dihydro-5H-pyrrolo[1,2-c]imidazol-1-yl)-2-[6-[4-[2-[2-[1-[4-[[(3S)-2,6-dioxo-3-piperidyl]amino]-2-fluoro-phenyl]-4-hydroxy-4-piperidyl]acetyl]-2,6-diazaspiro[3.3]heptan-6-yl]phenyl]-4-fluoro-1-oxo-isoindolin-2-yl]-N-thiazol-2-yl-acetamide], for which the “degradation selectivity for mutant EGFR-L858R over non-EGFR proteins” value with NCI-H1975 cells was “highly selective”. At EGFR L858R, the percent binding remaining is less than 50%.
